In patent publication US20250163104A1, “MACROCYCLIC IMMUNOMODULATORS” (priority 2021, published 2025) one finds IC50 data, which are given here for 15 molecules.

What is called IC50 is the concentration that inhibits the measured activity by half.

In the test the target is T1, human PD-1 / PD-L1-Ig binding on Jurkat cell line over-expressing human PD-1 (Jurkat-PD-1) (Homo sapiens, UniProt Q15116).
T1 construct: expressed in transfected cells; host or cells: Jurkat
Put plainly: Jurkat-PD-1 Cell Binding High-Content Screening Assay (CBA). The format is cell-based. The settings on record: Jurkat-PD-1 cells, PE-labeled PD-L1-Ig 20 nM final; read-out: Jurkat HPD1_PDL1 IC50. A digest of the protocol:
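Cell-bound PE-labeled PD-L1-Ig (20 nM final, 1 h) measured by high-content imaging after fixation and Hoechst 33342 counterstain. Compound was applied first for 2 h at 37° C. to Jurkat cells over-expressing human PD-1 in DMEM with 10% FCS.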

SMILES strings stand for the structures. Where a SMILES comes first, the peptide text is derived from it. Bridges are numbered along the chain shown (N, C = ends). [ ]: non-standard residue; d: D form. The star is where a group is joined. Phe(3,4,5-F3) = N[C@@H](Cc1cc(F)c(F)c(F)c1)C(=O)O; Phe(4-COOH) = N[C@@H](Cc1ccc(C(=O)O)cc1)C(=O)O; Bip = N[C@@H](Cc1ccc(-c2ccccc2)cc1)C(=O)O; Phe(3-Me) = Cc1cccc(C[C@H](N)C(=O)O)c1; 4Pal = N[C@@H](Cc1ccncc1)C(=O)O; Cha = N[C@@H](CC1CCCCC1)C(=O)O; Cit = NC(=O)NCCC[C@H](N)C(=O)O; Carboxymethyl = O=C(O)C*; Orn = NCCC[C@H](N)C(=O)O; Dab = NCC[C@H](N)C(=O)O; Dap = NC[C@H](N)C(=O)O

T1 sequence (Q15116 25-288): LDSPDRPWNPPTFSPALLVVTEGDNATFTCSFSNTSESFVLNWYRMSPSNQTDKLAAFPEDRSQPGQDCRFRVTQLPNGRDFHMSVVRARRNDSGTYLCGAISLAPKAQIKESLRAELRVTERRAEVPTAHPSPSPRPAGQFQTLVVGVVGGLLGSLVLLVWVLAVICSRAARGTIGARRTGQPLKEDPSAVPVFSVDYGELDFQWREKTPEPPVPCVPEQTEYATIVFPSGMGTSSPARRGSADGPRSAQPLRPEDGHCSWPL

Take `CC(C)C[C@@H]1NC(=O)[C@H](Cc2c[nH]c3ccccc23)NC(=O)[C@H](CC(=O)O)NC(=O)[C@H](Cc2ccc(O)cc2)NC(=O)[C@H](Cc2ccccc2)NC(=O)CSC[C@@H](C(=O)NCC(N)=O)NC(=O)[C@H]([C@@H](C)O)NC(=O)[C@H](C(C)C)NC(=O)[C@H](CC(C)C)NC(=O)[C@H](CC(N)=O)NC(=O)[C@@H](CC(C)C)NC(=O)[C@H](CN)NC(=O)[C@H](C(C)C)NC(=O)[C@H](Cc2ccc(-c3ccccc3)cc2)NC1=O` [Compound 1070] ({CH2CO}-FYDWL[Bip]V[Dap][dL]NLVTCG-NH2; thioether N-14): the IC50 was found to be 0.0388 µM.
`CC(C)C[C@@H]1NC(=O)[C@H](Cc2c[nH]c3ccccc23)NC(=O)[C@H](CC(=O)O)NC(=O)[C@H](Cc2ccc(O)cc2)NC(=O)[C@H](Cc2ccccc2)NC(=O)CSC[C@@H](C(=O)NCC(N)=O)NC(=O)[C@H]([C@@H](C)O)NC(=O)[C@H](C(C)C)NC(=O)[C@H](CC(C)C)NC(=O)[C@H](CCN)NC(=O)[C@@H](CC(C)C)NC(=O)[C@H](CCN)NC(=O)[C@H](C(C)C)NC(=O)[C@H](Cc2ccc(-c3ccccc3)cc2)NC1=O` [Compound 1060] ({CH2CO}-FYDWL[Bip]V[Dab][dL][Dab]LVTCG-NH2; thioether N-14): the IC50 was found to be 0.0164 µM.
`CC(C)C[C@H]1NC(=O)[C@H](CCCN)NC(=O)[C@H](CCC(=O)O)NC(=O)[C@H](Cc2ccc(-c3ccccc3)cc2)NC(=O)[C@H](C(C)C)NC(=O)[C@H](Cc2c[nH]c3ccccc23)NC(=O)[C@H](CC(=O)O)NC(=O)[C@H](Cc2ccc(OCC(=O)O)cc2)NC(=O)[C@H](CN)NC(=O)CSC[C@@H](C(=O)N[C@@H](C)C(N)=O)NC(=O)[C@H]([C@@H](C)O)NC(=O)[C@H](C(C)C)NC(=O)[C@H](Cc2cc(F)c(F)c(F)c2)NC(=O)[C@H](CCN)NC1=O` [Compound 1480] ({CH2CO}-[Dap]Y(Carboxymethyl)DWV[Bip]E[Orn][dL][Dab][Phe(3,4,5-F3)]VTCA-NH2; thioether N-14): the 50% inhibitory concentration (IC50) came to 0.15 µM.
Regarding `CC(=O)NCCC[C@@H]1NC(=O)[C@H](C(C)C)NC(=O)[C@H](CC2CCCCC2)NC(=O)[C@H](CCN)NC(=O)[C@@H](CC(C)C)NC(=O)[C@H](CCCN)NC(=O)[C@H](Cc2ccc(OCC(=O)O)cc2)NC(=O)[C@H](Cc2ccc(-c3ccccc3)cc2)NC(=O)[C@H](Cc2ccc(O)cc2)NC(=O)[C@H](Cc2cccc(C)c2)NC(=O)[C@H](CC(=O)O)NC(=O)[C@H](Cc2ccc(OCC(=O)O)cc2)NC(=O)[C@H](CCCNC(=N)N)NC(=O)CSC[C@@H](C(N)=O)NC1=O` [Compound 2054] ({CH2CO}-RY(Carboxymethyl)D[Phe(3-Me)]Y[Bip]Y(Carboxymethyl)[Orn][dL][Dab][Cha]V[Orn](Ac)C-NH2; thioether N-14), the IC50 was determined as 0.0124 µM.
With `CCCC[C@H]1NC(=O)[C@H](CCCN)NC(=O)[C@H](CCC(=O)O)NC(=O)[C@H](Cc2ccc(-c3ccccc3)cc2)NC(=O)[C@H](C(C)C)NC(=O)[C@H](Cc2c[nH]c3ccccc23)NC(=O)[C@H](CC(=O)O)NC(=O)[C@H](Cc2ccc(OCC(=O)O)cc2)NC(=O)[C@H](CN)NC(=O)CSC[C@@H](C(=O)N[C@@H](C)C(N)=O)NC(=O)[C@H]([C@@H](C)O)NC(=O)[C@H](C(C)C)NC(=O)[C@H](CC2CCCCC2)NC(=O)[C@H](CCN)NC1=O` [Compound 1454] the figure was 0.0119 µM; with `CC(C)C[C@H]1NC(=O)[C@H](CCCN)NC(=O)[C@H](C(C)C)NC(=O)[C@H](Cc2ccc(-c3ccccc3)cc2)NC(=O)[C@H](C(C)C)NC(=O)[C@H](Cc2c[nH]c3ccccc23)NC(=O)[C@H](CC(=O)O)NC(=O)[C@H](Cc2ccc(OCC(=O)O)cc2)NC(=O)[C@H](Cc2ccc(OCC(=O)O)cc2)NC(=O)CSC[C@@H](C(=O)N[C@@H](C)C(N)=O)NC(=O)[C@H](CCCN)NC(=O)[C@H](C(C)C)NC(=O)[C@H](CC2CCCCC2)NC(=O)[C@H](CCN)NC1=O` [Compound 1743] ({CH2CO}-Y(Carboxymethyl)Y(Carboxymethyl)DWV[Bip]V[Orn][dL][Dab][Cha]V[Orn]CA-NH2; thioether N-14), 0.006 µM.
With `Cc1cccc(C[C@@H]2NC(=O)[C@H](CC(=O)O)NC(=O)[C@H](Cc3ccc(C(=O)O)cc3)NC(=O)[C@H](Cc3ccncc3)NC(=O)CSC[C@@H](C(=O)N[C@H](CC(N)=O)C(N)=O)NC(=O)[C@H](CO)NC(=O)[C@H](C(C)C)NC(=O)[C@H](CC3CCCCC3)NC(=O)[C@H](CCN)NC(=O)[C@@H](CC(C)C)NC(=O)[C@H](CCCN)NC(=O)[C@H](Cc3ccc(OCC(=O)O)cc3)NC(=O)[C@H](Cc3ccc(-c4ccccc4)cc3)NC(=O)[C@H](Cc3ccc(OCC(=O)O)cc3)NC2=O)c1` [Compound 2313] ({CH2CO}-[4Pal][Phe(4-COOH)]D[Phe(3-Me)]Y(Carboxymethyl)[Bip]Y(Carboxymethyl)[Orn][dL][Dab][Cha]VSC[dN]-NH2; thioether N-14), the half-inhibitory concentration (IC50) is 0.0131 µM.
With `CC[C@H](C)[C@@H]1NC(=O)[C@H](C(C)C)NC(=O)[C@H](CC2CCCCC2)NC(=O)[C@H](CCN)NC(=O)[C@@H](CC(C)C)NC(=O)[C@H](CCCN)NC(=O)[C@H](CCCNC(N)=O)NC(=O)[C@H](Cc2ccc(-c3ccccc3)cc2)NC(=O)[C@H](C(C)C)NC(=O)[C@H](Cc2c[nH]c3ccccc23)NC(=O)[C@H](CC(=O)O)NC(=O)[C@H](Cc2ccc(OCC(=O)O)cc2)NC(=O)[C@H](CN)NC(=O)CSC[C@@H](C(=O)N[C@@H](C)C(N)=O)NC1=O` [Compound 1320] ({CH2CO}-[Dap]Y(Carboxymethyl)DWV[Bip][Cit][Orn][dL][Dab][Cha]VICA-NH2; thioether N-14) the figure was 0.0527 µM; with `CCCC[C@H]1NC(=O)[C@H](CCCN)NC(=O)[C@H]([C@@H](C)CC)NC(=O)[C@H](Cc2ccc(-c3ccccc3)cc2)NC(=O)[C@H](C(C)C)NC(=O)[C@H](Cc2c[nH]c3ccccc23)NC(=O)[C@H](CC(=O)O)NC(=O)[C@H](Cc2ccc(OCC(=O)O)cc2)NC(=O)[C@H](Cc2ccc(OCC(=O)O)cc2)NC(=O)CSC[C@@H](C(=O)N[C@@H](C)C(N)=O)NC(=O)[C@H]([C@@H](C)O)NC(=O)[C@H](C(C)C)NC(=O)[C@H](CC2CCCCC2)NC(=O)[C@H](CCN)NC1=O` [Compound 1706], 0.0115 µM; with `CC(C)C[C@H]1NC(=O)[C@H](CCCN)NC(=O)[C@H](CCCNC(N)=O)NC(=O)[C@H](Cc2ccc(-c3ccccc3)cc2)NC(=O)[C@H](C(C)C)NC(=O)[C@H](Cc2c[nH]c3ccccc23)NC(=O)[C@H](CC(=O)O)NC(=O)[C@H](Cc2ccc(O)cc2)NC(=O)[C@H](Cc2ccc(OCC(=O)O)cc2)NC(=O)CSC[C@@H](C(=O)N[C@@H](C)C(N)=O)NC(=O)[C@H]([C@@H](C)O)NC(=O)[C@H](C(C)C)NC(=O)[C@H](CC2CCCCC2)NC(=O)[C@H](CCN)NC1=O` [Compound 1165], 0.0146 µM.
With `CC(C)C[C@@H]1NC(=O)[C@H](CCCCN)NC(=O)[C@@H](CC(C)C)NC(=O)[C@H](CCN)NC(=O)[C@H](Cc2cnc[nH]2)NC(=O)[C@H](Cc2ccc(-c3ccccc3)cc2)NC(=O)[C@H](C(C)C)NC(=O)[C@H](Cc2c[nH]c3ccccc23)NC(=O)[C@H](CC(=O)O)NC(=O)[C@H](Cc2ccc(O)cc2)NC(=O)[C@H](CC(N)=O)NC(=O)CSC[C@@H](C(=O)NCC(N)=O)NC(=O)[C@H]([C@@H](C)O)NC(=O)[C@H](C(C)C)NC1=O` [Compound 1140] ({CH2CO}-NYDWV[Bip]H[Dab][dL]KLVTCG-NH2; thioether N-14) the figure was 0.0577 µM; with `CC[C@H](C)[C@@H]1NC(=O)[C@H](Cc2ccc(-c3ccccc3)cc2)NC(=O)[C@H](C(C)C)NC(=O)[C@H](Cc2cccc(OC)c2)NC(=O)[C@H](CC(=O)O)NC(=O)[C@H](Cc2ccncc2)NC(=O)[C@H](CN)NC(=O)CSC[C@@H](C(=O)N[C@@H](C)C(N)=O)NC(=O)[C@H]([C@@H](C)O)NC(=O)[C@H](C(C)C)NC(=O)[C@H](CC2CCCCC2)NC(=O)[C@H](CCN)NC(=O)[C@@H](CC(C)C)NC(=O)[C@H](CCCN)NC1=O` [Compound 1563], 0.0107 µM; with `CC(C)C[C@H]1NC(=O)[C@H](CCCN)NC(=O)[C@H](CCC(=O)O)NC(=O)[C@H](Cc2ccc(-c3ccccc3)cc2)NC(=O)[C@H](C(C)C)NC(=O)[C@H](Cc2ccc(F)c(F)c2)NC(=O)[C@H](CC(=O)O)NC(=O)[C@H](Cc2ccc(OCC(=O)O)cc2)NC(=O)[C@H](CN)NC(=O)CSC[C@@H](C(=O)N[C@@H](C)C(N)=O)NC(=O)[C@H]([C@@H](C)O)NC(=O)[C@H](C(C)C)NC(=O)[C@H](CC2CCCCC2)NC(=O)[C@H](CCN)NC1=O` [Compound 2148], 0.0175 µM.
As to `CC(C)C[C@H]1NC(=O)[C@H](CCCN)NC(=O)[C@H](CCC(=O)O)NC(=O)[C@H](Cc2ccc(-c3ccccc3)cc2)NC(=O)[C@H](C(C)C)NC(=O)[C@H](Cc2c[nH]c3ccccc23)NC(=O)[C@H](CC(=O)O)NC(=O)[C@H](Cc2ccc(N)cc2)NC(=O)[C@H](Cc2ccncc2)NC(=O)CSC[C@@H](C(=O)N[C@@H](C)C(N)=O)NC(=O)[C@H]([C@@H](C)O)NC(=O)[C@H](C(C)C)NC(=O)[C@H](CC2CCCCC2)NC(=O)[C@H](CCN)NC1=O` [Compound 2184], the IC50 is 0.0285 µM.
For `CC(C)C[C@H]1NC(=O)[C@H](CCCN)NC(=O)[C@H](C(C)C)NC(=O)[C@H](Cc2ccc(-c3ccccc3)cc2)NC(=O)[C@H](C(C)C)NC(=O)[C@H](Cc2c[nH]c3ccccc23)NC(=O)[C@H](CC(=O)O)NC(=O)[C@H](Cc2ccc(OCC(=O)O)cc2)NC(=O)[C@H](CN)NC(=O)CSC[C@@H](C(=O)N[C@@H](C)C(N)=O)NC(=O)[C@H](CCCNC(=N)N)NC(=O)[C@H](C(C)C)NC(=O)[C@H](CC2CCCCC2)NC(=O)[C@H](CCN)NC1=O` [Compound 1747] ({CH2CO}-[Dap]Y(Carboxymethyl)DWV[Bip]V[Orn][dL][Dab][Cha]VRCA-NH2; thioether N-14), the IC50 was determined as 0.0064 µM.
